≈ marks a conversion by molar mass, not a printed value.
Experiments:
Nannizzia gypsea = assay: Antifungal activity against Microsporum gypseum by serial dilution method; type: functional
Aspergillus fumigatus = assay: Antifungal activity against Aspergillus fumigatus after 7 days by serial dilution method; type: functional; conditions: 168 h
Kluyveromyces marxianus = assay: Antifungal activity against Candida kefyr after 24 hrs by serial dilution method; type: functional
Trichophyton rubrum = assay: Antifungal activity against Trichophyton rubrum by serial dilution method; type: functional
Candida parapsilosis = assay: Antifungal activity against Candida parapsilosis after 24 hrs by serial dilution method; type: functional; conditions: Lodderomyces parapsilosis
Cryptococcus neoformans = assay: Antifungal activity against Cryptococcus neoformans after 72 hrs by serial dilution method; type: functional
Candida tropicalis = assay: Antifungal activity against Candida tropicalis after 24 hrs by serial dilution method; type: functional
Candida albicans = assay: Antifungal activity against Candida albicans after 24 hrs by serial dilution method; type: functional
[1] = Inhibition of Saccharomyces cerevisiae NMT

SMILES | MIC80 (Nannizzia gypsea) | MIC80 (Aspergillus fumigatus) | MIC80 (Kluyveromyces marxianus) | MIC80 (Trichophyton rubrum) | MIC80 (Candida parapsilosis) | MIC80 (Cryptococcus neoformans) | MIC80 (Candida tropicalis) | MIC80 (Candida albicans) | IC50 [1]
Cc1ccc2c(c1)c1c(n2C[C@@H](O)CNC2CCCCC2)CCCC1 | 16 µg/mL (≈ 47 µM) | 64 µg/mL (≈ 188 µM) | 64 µg/mL (≈ 188 µM) | 16 µg/mL (≈ 47 µM) | 16 µg/mL (≈ 47 µM) | 16 µg/mL (≈ 47 µM) | 64 µg/mL (≈ 188 µM) | 64 µg/mL (≈ 188 µM) | 24 nM
Cc1ccc2c(c1)c1c(n2CCCNCc2ccccc2F)CCCC1 |  | 16 µg/mL (≈ 45.7 µM) | 16 µg/mL (≈ 45.7 µM) | 64 µg/mL (≈ 183 µM) | > 64 µg/mL | > 64 µg/mL | 32 µg/mL (≈ 91.3 µM) | > 64 µg/mL | 
Cc1ccc2c(c1)c1c(n2CC(O)CNc2ccccc2)CCCC1 (stereo unspecified) | 1 µg/mL (≈ 2.99 µM) | > 64 µg/mL |  |  |  | > 64 µg/mL |  | > 64 µg/mL | 
Cc1ccc2c(c1)c1c(n2CC(O)CNCc2ccccc2)CCCC1 (stereo unspecified) | 16 µg/mL (≈ 45.9 µM) | 64 µg/mL (≈ 184 µM) | 64 µg/mL (≈ 184 µM) | 16 µg/mL (≈ 45.9 µM) | 64 µg/mL (≈ 184 µM) | 4 µg/mL (≈ 11.5 µM) | 64 µg/mL (≈ 184 µM) | 16 µg/mL (≈ 45.9 µM) | 
Cc1ccc2c(c1)c1c(n2CC(O)CNCc2cccnc2)CCCC1 (stereo unspecified) | 16 µg/mL (≈ 45.8 µM) | 64 µg/mL (≈ 183 µM) |  |  |  | 64 µg/mL (≈ 183 µM) |  | > 64 µg/mL | 
Cc1ccc2c(c1)c1c(n2CCCNC2CCCCC2)CCCC1 | 4 µg/mL (≈ 12.3 µM) | > 64 µg/mL |  |  |  | > 64 µg/mL |  | > 64 µg/mL | 
Cc1ccc2c(c1)c1c(n2CCCNc2ccccc2)CCCC1 | 0.0625 µg/mL (≈ 0.196 µM) | 16 µg/mL (≈ 50.2 µM) | 16 µg/mL (≈ 50.2 µM) | 16 µg/mL (≈ 50.2 µM) | 16 µg/mL (≈ 50.2 µM) | 16 µg/mL (≈ 50.2 µM) | 16 µg/mL (≈ 50.2 µM) | 64 µg/mL (≈ 201 µM) | 
Cc1ccc2c(c1)c1c(n2CCCNCc2ccccc2)CCCC1 | 0.0156 µg/mL (≈ 0.0469 µM) | 32 µg/mL (≈ 96.2 µM) | 32 µg/mL (≈ 96.2 µM) | 4 µg/mL (≈ 12 µM) | 16 µg/mL (≈ 48.1 µM) | 1 µg/mL (≈ 3.01 µM) | 32 µg/mL (≈ 96.2 µM) | 16 µg/mL (≈ 48.1 µM) | 
Cc1ccc2c(c1)c1c(n2CCCNCc2cccnc2)CCCC1 | 0.0625 µg/mL (≈ 0.187 µM) | 64 µg/mL (≈ 192 µM) | 16 µg/mL (≈ 48 µM) | 4 µg/mL (≈ 12 µM) | 64 µg/mL (≈ 192 µM) | 64 µg/mL (≈ 192 µM) | 16 µg/mL (≈ 48 µM) | 64 µg/mL (≈ 192 µM) | 
Cc1ccc2c(c1)c1c(n2CCCNCc2ccc(F)cc2)CCCC1 |  | 32 µg/mL (≈ 91.3 µM) | 16 µg/mL (≈ 45.7 µM) | 8 µg/mL (≈ 22.8 µM) | 32 µg/mL (≈ 91.3 µM) | 8 µg/mL (≈ 22.8 µM) | 8 µg/mL (≈ 22.8 µM) | 64 µg/mL (≈ 183 µM) | 
Cc1ccc2c(c1)c1c(n2CCCNCc2cccc(F)c2)CCCC1 |  | > 64 µg/mL | > 64 µg/mL | 64 µg/mL (≈ 183 µM) | 64 µg/mL (≈ 183 µM) | 64 µg/mL (≈ 183 µM) | > 64 µg/mL | > 64 µg/mL | 
Cc1ccc2c(c1)c1c(n2CCCNCc2ccc(Cl)cc2)CCCC1 |  | 16 µg/mL (≈ 43.6 µM) | 16 µg/mL (≈ 43.6 µM) | > 64 µg/mL | 32 µg/mL (≈ 87.2 µM) | > 64 µg/mL | 64 µg/mL (≈ 174 µM) | > 64 µg/mL | 
Cc1ccc2c(c1)c1c(n2CCCNCc2ccccc2Cl)CCCC1 |  | > 64 µg/mL | > 64 µg/mL | > 64 µg/mL | > 64 µg/mL | > 64 µg/mL | > 64 µg/mL | > 64 µg/mL | 
Cc1ccc2c(c1)c1c(n2CCCNCc2cccc(Cl)c2)CCCC1 |  | > 64 µg/mL | 64 µg/mL (≈ 174 µM) | > 64 µg/mL | > 64 µg/mL | 32 µg/mL (≈ 87.2 µM) | > 64 µg/mL | > 64 µg/mL | 
Cc1ccc(CNCCCn2c3c(c4cc(C)ccc42)CCCC3)cc1 |  | 32 µg/mL (≈ 92.3 µM) | 16 µg/mL (≈ 46.2 µM) | 8 µg/mL (≈ 23.1 µM) | 32 µg/mL (≈ 92.3 µM) | 8 µg/mL (≈ 23.1 µM) | 16 µg/mL (≈ 46.2 µM) | 32 µg/mL (≈ 92.3 µM) | 
COc1ccc(CNCCCn2c3c(c4cc(C)ccc42)CCCC3)cc1 |  | 16 µg/mL (≈ 44.1 µM) | 16 µg/mL (≈ 44.1 µM) | 8 µg/mL (≈ 22.1 µM) | 16 µg/mL (≈ 44.1 µM) | 16 µg/mL (≈ 44.1 µM) | 8 µg/mL (≈ 22.1 µM) | 32 µg/mL (≈ 88.3 µM) | 
Cc1ccc2c(c1)c1c(n2CCCNCc2ccc(Cl)cc2Cl)CCCC1 |  | > 64 µg/mL | > 64 µg/mL | > 64 µg/mL | > 64 µg/mL | > 64 µg/mL | > 64 µg/mL | > 64 µg/mL | 

SMILES | MIC80 (Nannizzia gypsea) | MIC80 (Aspergillus fumigatus) | MIC80 (Kluyveromyces marxianus) | MIC80 (Trichophyton rubrum) | MIC80 (Candida parapsilosis) | MIC80 (Cryptococcus neoformans) | MIC80 (Candida tropicalis) | MIC80 (Candida albicans) | IC50 [1]
CCOC(=O)c1ccc2c(c1)c1c(n2CCCNCc2ccccc2)CCCC1 |  | > 64 µg/mL | > 64 µg/mL |  | > 64 µg/mL | > 64 µg/mL | > 64 µg/mL | > 64 µg/mL | 
OCc1ccc2c(c1)c1c(n2CCCNCc2ccccc2)CCCC1 |  | > 64 µg/mL | > 64 µg/mL |  | > 64 µg/mL | > 64 µg/mL | > 64 µg/mL | > 64 µg/mL | 
O=C(OCc1ccc2c(c1)c1c(n2CCCNCc2ccccc2)CCCC1)c1ccccc1 |  | > 64 µg/mL | > 64 µg/mL |  | > 64 µg/mL | > 64 µg/mL | > 64 µg/mL | > 64 µg/mL | 
c1ccc(CNCCCn2c3c(c4cc(CNc5ccccc5)ccc42)CCCC3)cc1 |  | > 64 µg/mL | > 64 µg/mL |  | > 64 µg/mL | > 64 µg/mL | > 64 µg/mL | 32 µg/mL (≈ 75.5 µM) | 
O=C(Oc1ccccc1)c1ccc2c(c1)c1c(n2CCCNCc2ccccc2)CCCC1 |  | 64 µg/mL (≈ 146 µM) | > 64 µg/mL |  | > 64 µg/mL | > 64 µg/mL | > 64 µg/mL | 64 µg/mL (≈ 146 µM) | 
O=C(OC1CCNCC1)c1ccc2c(c1)c1c(n2CCCNCc2ccccc2)CCCC1 |  | > 64 µg/mL | 64 µg/mL (≈ 144 µM) |  | 32 µg/mL (≈ 71.8 µM) | 32 µg/mL (≈ 71.8 µM) | 8 µg/mL (≈ 18 µM) | 32 µg/mL (≈ 71.8 µM) | 
CN1CCC(OC(=O)c2ccc3c(c2)c2c(n3CCCNCc3ccccc3)CCCC2)CC1 |  | 32 µg/mL (≈ 69.6 µM) | 32 µg/mL (≈ 69.6 µM) |  | 64 µg/mL (≈ 139 µM) | 16 µg/mL (≈ 34.8 µM) | 32 µg/mL (≈ 69.6 µM) | 32 µg/mL (≈ 69.6 µM) | 
O=C(Nc1ccccc1)c1ccc2c(c1)c1c(n2CCCNCc2ccccc2)CCCC1 |  | > 64 µg/mL | > 64 µg/mL |  | > 64 µg/mL | 64 µg/mL (≈ 146 µM) | > 64 µg/mL | 32 µg/mL (≈ 73.1 µM) | 
O=C(Nc1ccc(Br)cc1)c1ccc2c(c1)c1c(n2CCCNCc2ccccc2)CCCC1 |  | 64 µg/mL (≈ 124 µM) | > 64 µg/mL |  | > 64 µg/mL | 16 µg/mL (≈ 31 µM) | > 64 µg/mL | 32 µg/mL (≈ 62 µM) | 
O=C(NCc1ccccc1)c1ccc2c(c1)c1c(n2CCCNCc2ccccc2)CCCC1 |  | > 64 µg/mL | > 64 µg/mL |  | > 64 µg/mL | 64 µg/mL (≈ 142 µM) | > 64 µg/mL | > 64 µg/mL | 
O=C(OC1CCCCC1)c1ccc2c(c1)c1c(n2CCCNCc2ccccc2)CCCC1 |  | > 64 µg/mL | > 64 µg/mL |  | > 64 µg/mL | > 64 µg/mL | > 64 µg/mL | 64 µg/mL (≈ 144 µM) | 
O=C(c1ccc2c(c1)c1c(n2CCCNCc2ccccc2)CCCC1)c1ccccn1 |  | > 64 µg/mL | > 64 µg/mL |  | > 64 µg/mL | 64 µg/mL (≈ 151 µM) | > 64 µg/mL | 64 µg/mL (≈ 151 µM) | 
Cc1ccc(C(=O)c2ccc3c(c2)c2c(n3CCCNCc3ccccc3)CCCC2)nc1 |  | > 64 µg/mL | > 64 µg/mL |  | > 64 µg/mL | > 64 µg/mL | > 64 µg/mL | 64 µg/mL (≈ 146 µM) | 
O=C(c1ccc2c(c1)c1c(n2CCCNCc2ccccc2)CCCC1)c1nccs1 |  | > 64 µg/mL | > 64 µg/mL |  | > 64 µg/mL | > 64 µg/mL | > 64 µg/mL | 32 µg/mL (≈ 74.5 µM) | 
Cc1c(C(=O)c2ccccn2)oc2cccc(OCCCNCc3cccnc3)c12 | > 64 µg/mL | > 64 µg/mL | 4 µg/mL (≈ 9.96 µM) | 64 µg/mL (≈ 159 µM) | 4 µg/mL (≈ 9.96 µM) | > 64 µg/mL | 8 µg/mL (≈ 19.9 µM) | 4 µg/mL (≈ 9.96 µM) | 
OC(Cn1cncn1)(Cn1cncn1)c1ccc(F)cc1F [FLUCONAZOLE] | 1 µg/mL (≈ 3.27 µM) | > 64 µg/mL | 4 µg/mL (≈ 13.1 µM) | 1 µg/mL (≈ 3.27 µM) | 4 µg/mL (≈ 13.1 µM) | 1 µg/mL (≈ 3.27 µM) | 2 µg/mL (≈ 6.53 µM) | 0.5 µg/mL (≈ 1.63 µM) | 
